19 molecules from patent publication US7981903B2, “2-[2-{phenylamino}-1H-pyrrolo[2,3-D]pyrimidin-4-yl)amino] benzamide derivatives as IGF-1R inhibitors for the treatment of cancer” (GlaxoSmithKline LLC, priority 2007, dated 2011) can be followed below.

The target in one test is T1, human IGF1R (hIGF1R) (Homo sapiens, UniProt P08069).
T1 construct: containing amino acid residues 957-1367 of human IGF1R; made in house; host or cells: Sf9 cells (baculovirus)
In words: TR-FRET kinase assay of purified hIGF1R. Type of test: biochemical. The settings on record: activated hIGF1R 0.5 nM, 10 μM ATP, values given as pIC50 category, read-out: IGF-1R pIC50 (converted). In general terms: TR-FRET usually uses a lanthanide donor and a delayed reading to cut background.

For a further test, the system named is Colo205. The test is described as follows: Inhibition of cell proliferation (CellTiter-Glo or InCell analyzer), Colo205. Type of test: cell-based. The settings on record: Homo sapiens, COLO 205, 72 h / 3 days, values given as IC50 category. In a few lines: In one
The subject of the next test is NCI-H929. In words: Inhibition of cell proliferation (CellTiter-Glo or InCell analyzer), NCI-H929. Type of test: cell-based. The settings on record: Homo sapiens, 72 h / 3 days, values given as IC50 category. The procedure, abridged:
In one

Test [1] has as its target T2, NIH-3T3 cells overexpressing human IGF-1R (Homo sapiens, UniProt P08069).
T2 construct: expressed in transfected cells; host or cells: NIH-3T3 (mouse fibroblasts)
In words: IGF-1R cellular autophosphorylation (DELFIA). Type of test: cell-based. The procedure, abridged: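 Receptor autophosphorylation measured by DELFIA, capturing IGF-1R or IRβ and detecting with europium anti-pTyr, reported as percent of IGF-1- or insulin-stimulated signal. Compounds (30 uM to 1.5 nM) added 2 h before ligand, then 15 min stimulation (IGF-1 30 ng/ml or insulin 3 ug/ml).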

T2 sequence (P08069 31-1367): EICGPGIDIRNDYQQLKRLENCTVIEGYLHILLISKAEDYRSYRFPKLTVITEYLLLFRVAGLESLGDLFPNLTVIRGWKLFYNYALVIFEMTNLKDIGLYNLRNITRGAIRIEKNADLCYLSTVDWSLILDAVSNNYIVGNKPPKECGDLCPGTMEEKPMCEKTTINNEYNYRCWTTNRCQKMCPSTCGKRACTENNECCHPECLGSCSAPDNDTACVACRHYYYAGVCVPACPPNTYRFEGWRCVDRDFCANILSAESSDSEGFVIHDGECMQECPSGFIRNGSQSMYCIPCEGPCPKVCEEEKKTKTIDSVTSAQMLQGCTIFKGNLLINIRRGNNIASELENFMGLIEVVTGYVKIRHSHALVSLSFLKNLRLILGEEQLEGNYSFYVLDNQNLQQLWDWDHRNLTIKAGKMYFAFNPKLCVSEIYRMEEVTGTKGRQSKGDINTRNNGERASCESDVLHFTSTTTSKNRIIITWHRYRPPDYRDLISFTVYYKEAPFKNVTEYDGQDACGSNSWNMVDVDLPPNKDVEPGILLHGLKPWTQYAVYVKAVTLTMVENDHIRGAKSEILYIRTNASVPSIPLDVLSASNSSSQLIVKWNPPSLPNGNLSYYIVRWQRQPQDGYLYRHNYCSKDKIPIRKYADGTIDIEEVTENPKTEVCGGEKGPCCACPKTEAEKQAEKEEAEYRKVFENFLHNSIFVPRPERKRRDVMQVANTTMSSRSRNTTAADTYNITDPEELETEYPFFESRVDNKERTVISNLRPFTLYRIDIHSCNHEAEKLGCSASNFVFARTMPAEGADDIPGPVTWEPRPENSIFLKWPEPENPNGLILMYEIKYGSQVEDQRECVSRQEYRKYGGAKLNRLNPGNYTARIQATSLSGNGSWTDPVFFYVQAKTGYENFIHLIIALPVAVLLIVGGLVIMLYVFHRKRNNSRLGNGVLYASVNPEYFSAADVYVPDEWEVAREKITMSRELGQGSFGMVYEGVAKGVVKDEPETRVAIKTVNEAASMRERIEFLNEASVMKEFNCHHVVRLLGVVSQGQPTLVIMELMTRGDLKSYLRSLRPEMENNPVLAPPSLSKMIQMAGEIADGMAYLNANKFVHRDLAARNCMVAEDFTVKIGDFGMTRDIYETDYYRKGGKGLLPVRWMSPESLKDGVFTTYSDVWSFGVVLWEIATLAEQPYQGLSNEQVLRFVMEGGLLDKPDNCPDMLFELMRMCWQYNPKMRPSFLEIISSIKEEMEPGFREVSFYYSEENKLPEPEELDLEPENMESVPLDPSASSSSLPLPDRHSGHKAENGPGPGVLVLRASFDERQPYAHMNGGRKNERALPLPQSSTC
T1 sequence (P08069 957-1367): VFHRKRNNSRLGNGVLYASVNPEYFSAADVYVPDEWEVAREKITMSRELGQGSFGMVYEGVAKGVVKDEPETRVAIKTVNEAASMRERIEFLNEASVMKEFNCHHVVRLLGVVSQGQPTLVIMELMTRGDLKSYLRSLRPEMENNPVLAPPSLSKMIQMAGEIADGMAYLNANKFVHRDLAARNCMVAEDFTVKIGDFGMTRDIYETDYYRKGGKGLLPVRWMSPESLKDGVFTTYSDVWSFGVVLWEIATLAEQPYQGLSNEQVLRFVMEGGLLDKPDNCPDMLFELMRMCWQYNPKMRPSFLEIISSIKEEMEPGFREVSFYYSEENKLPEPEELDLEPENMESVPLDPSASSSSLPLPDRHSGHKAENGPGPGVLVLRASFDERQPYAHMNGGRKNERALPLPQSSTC

Consider `CNC(=O)c1c(F)cccc1Nc1nc(Nc2cc3c(cc2OC)N(C(=O)CN(C)C)CC3)nc2[nH]ccc12` [Example 198, 2-[(2-{[1-(N,N-dimethylglycyl)-6-(methyloxy)-2,3-dihydro-1H-indol-5-yl]amino}-1H-pyrrolo[2,3-d]pyrimidin-4-yl)amino]-6-fluoro-N-methylbenzamide], for which the IC50 at human IGF1R (hIGF1R) is 1.26 to 3.98 nM; with Colo205, less than 250 nM; in the test with NCI-H929 it was 250 to 1000 nM; in test [1] it was more than 500 nM.
On to `COc1cc2c(cc1Nc1nc(Nc3cc(F)cc(F)c3C(N)=O)c3cc[nH]c3n1)CN(CCF)CC2` [Example 239, 2,4-difluoro-6-[(2-{[2-(2-fluoroethyl)-6-(methyloxy)-1,2,3,4-tetrahydro-7-isoquinolinyl]amino}-1H-pyrrolo[2,3-d]pyrimidin-4-yl)amino]benzamide], for which the IC50 was 1.26 to 3.98 nM at human IGF1R (hIGF1R), more than 1000 nM with Colo205, 250 to 1000 nM in the test on NCI-H929 and more than 500 nM in test [1].
As to `CCC(C)N1CCc2cc(OC)c(Nc3nc(Nc4cccc(F)c4C(N)=O)c4cc[nH]c4n3)cc2C1` (stereo not shown) [Example 237, 2-fluoro-6-[(2-{[6-(methyloxy)-2-(1-methylpropyl)-1,2,3,4-tetrahydro-7-isoquinolinyl]amino}-1H-pyrrolo[2,3-d]pyrimidin-4-yl)amino]benzamide], the IC50 at human IGF1R (hIGF1R) was 1.26 to 3.98 nM; in the test on Colo205, 250 to 1000 nM; in the test with NCI-H929, less than 250 nM; in test [1], 100 to 500 nM.
For `CCCN1CCCC(c2ccc(Nc3nc(Nc4cc(F)ccc4C(N)=O)c4cc[nH]c4n3)c(OC)c2)C1` (stereo not shown) [Example 71, 4-fluoro-2-[(2-{[2-(methyloxy)-4-(1-propyl-3-piperidinyl)phenyl]amino}-1H-pyrrolo[2,3-d]pyrimidin-4-yl)amino]benzamide], in that order: 0.251 to 1 nM, less than 250 nM, less than 250 nM and less than 100 nM.
As for `CNC(=O)c1c(F)cccc1Nc1nc(Nc2cc(NC(=O)CN(C)C)ccc2OC)nc2[nH]ccc12` [Example 245, 2-[(2-{[5-[(N,N-dimethylglycyl)amino]-2-(methyloxy)phenyl]amino}-1H-pyrrolo[2,3-d]pyrimidin-4-yl)amino]-6-fluoro-N-methylbenzamide], the IC50 was 1.26 to 3.98 nM on human IGF1R (hIGF1R), 250 to 1000 nM with Colo205, less than 250 nM in the test with NCI-H929 and more than 500 nM in test [1].
For `COc1cc2c(cc1Nc1nc(Nc3cc(F)cc(F)c3C(=O)NCc3ccc(F)cc3)c3cc[nH]c3n1)N(C(=O)CN(C)C)CC2` [Example 155, 2-[(2-{[1-(N,N-dimethylglycyl)-5-(methyloxy)-2,3-dihydro-1H-indol-6-yl]amino}-1H-pyrrolo[2,3-d]pyrimidin-4-yl)amino]-4,6-difluoro-N-[(4-fluorophenyl)methyl]benzamide], in that order: 1.26 to 3.98 nM, more than 1000 nM, more than 1000 nM and 100 to 500 nM.
Consider `CCCN1CCC(c2ccc(Nc3nc(Nc4cc(F)ccc4C(N)=O)c4cc[nH]c4n3)c(OC)c2)CC1` [Example 73, 4-fluoro-2-[(2-{[2-(methyloxy)-4-(1-propyl-4-piperidinyl)phenyl]amino}-1H-pyrrolo[2,3-d]pyrimidin-4-yl)amino]benzamide], for which the IC50 is 0.251 to 1 nM on human IGF1R (hIGF1R), less than 250 nM in the test on Colo205, less than 250 nM in the test on NCI-H929 and less than 100 nM in test [1].
Take `COc1cc(N2CCN(C(C)C)CC2)ccc1Nc1nc(Nc2cccc(F)c2C(N)=O)c2cc[nH]c2n1` [Example 46, 2-fluoro-6-[(2-{[4-[4-(1-methylethyl)-1-piperazinyl]-2-(methyloxy)phenyl]amino}-1H-pyrrolo[2,3-d]pyrimidin-4-yl)amino]benzamide]: the IC50 at human IGF1R (hIGF1R) is 1.26 to 3.98 nM; with Colo205 it was less than 250 nM; in the test with NCI-H929, less than 250 nM; in test [1], 100 to 500 nM.
As to `CNC(=O)c1c(Nc2nc(Nc3cc4c(cc3OC)CCCN4C(=O)CN(C)C)nc3[nH]ccc23)ccc(F)c1F` [Example 163, 6-[(2-{[1-(N,N-dimethylglycyl)-6-(methyloxy)-1,2,3,4-tetrahydro-7-quinolinyl]amino}-1H-pyrrolo[2,3-d]pyrimidin-4-yl)amino]-2,3-difluoro-N-methylbenzamide], the IC50 is 1.26 to 3.98 nM on human IGF1R (hIGF1R), 250 to 1000 nM in the test on Colo205, less than 250 nM in the test with NCI-H929 and less than 100 nM in test [1].
On to `CNC(=O)c1c(F)cccc1Nc1nc(Nc2cc3c(cc2OC)CCCN3C(=O)CN(C)C)nc2[nH]ccc12` [Example 212, 2-[(2-{[1-(N,N-dimethylglycyl)-6-(methyloxy)-1,2,3,4-tetrahydro-7-quinolinyl]amino}-1H-pyrrolo[2,3-d]pyrimidin-4-yl)amino]-6-fluoro-N-methylbenzamide], for which the IC50 is 1.26 to 3.98 nM at human IGF1R (hIGF1R), 250 to 1000 nM with Colo205, less than 250 nM in the test on NCI-H929 and 100 to 500 nM in test [1].
As for `CCCN1CCC(COc2ccc(Nc3nc(Nc4cccc(F)c4C(N)=O)c4cc[nH]c4n3)c(OC)c2)CC1` [Example 206, 2-fluoro-6-({2-[(2-(methyloxy)-4-{[(1-propyl-4-piperidinyl)methyl]oxy}phenyl)amino]-1H-pyrrolo[2,3-d]pyrimidin-4-yl}amino)benzamide], the IC50 on human IGF1R (hIGF1R) was 1.26 to 3.98 nM; in the test on Colo205, 250 to 1000 nM; in the test on NCI-H929, less than 250 nM; in test [1], 100 to 500 nM.
Turning to `CCCNC(=O)c1c(F)cccc1Nc1nc(Nc2cc3c(cc2OC)CCN3C(=O)CN(C)C)nc2[nH]ccc12` [Example 156, 2-[(2-{[1-(N,N-dimethylglycyl)-5-(methyloxy)-2,3-dihydro-1H-indol-6-yl]amino}-1H-pyrrolo[2,3-d]pyrimidin-4-yl)amino]-6-fluoro-N-propylbenzamide], the IC50 at human IGF1R (hIGF1R) is 1.26 to 3.98 nM; in the test with Colo205, more than 1000 nM; in the test on NCI-H929, 250 to 1000 nM; in test [1] it was 100 to 500 nM.
As for `COc1cc2c(cc1Nc1nc(Nc3cc(F)cc(F)c3C(=O)NCC(C)C)c3cc[nH]c3n1)N(C(=O)CN(C)C)CC2` [Example 154, 2-[(2-{[1-(N,N-dimethylglycyl)-5-(methyloxy)-2,3-dihydro-1H-indol-6-yl]amino}-1H-pyrrolo[2,3-d]pyrimidin-4-yl)amino]-4,6-difluoro-N-(2-methylpropyl)benzamide], the IC50 was 1.26 to 3.98 nM at human IGF1R (hIGF1R), more than 1000 nM in the test with Colo205, 250 to 1000 nM in the test with NCI-H929 and 100 to 500 nM in test [1].
Turning to `COc1cc(N2CCN(C(C)C)CC2)ccc1Nc1nc(Nc2cc(Cl)cc(F)c2C(N)=O)c2cc[nH]c2n1` [Example 93, 4-chloro-2-fluoro-6-[(2-{[4-[4-(1-methylethyl)-1-piperazinyl]-2-(methyloxy)phenyl]amino}-1H-pyrrolo[2,3-d]pyrimidin-4-yl)amino]benzamide], the IC50 was 1.26 to 3.98 nM at human IGF1R (hIGF1R), 250 to 1000 nM with Colo205, less than 250 nM in the test on NCI-H929 and 100 to 500 nM in test [1].
Consider `COc1cc2c(cc1Nc1nc(Nc3cccc(F)c3C(N)=O)c3cc[nH]c3n1)CN(CCF)CC2` [Example 233, 2-fluoro-6-[(2-{[2-(2-fluoroethyl)-6-(methyloxy)-1,2,3,4-tetrahydro-7-isoquinolinyl]amino}-1H-pyrrolo[2,3-d]pyrimidin-4-yl)amino]benzamide], for which the IC50 at human IGF1R (hIGF1R) was 1.26 to 3.98 nM; with Colo205, 250 to 1000 nM; with NCI-H929, less than 250 nM; in test [1], 100 to 500 nM.
Turning to `COc1cc2c(cc1Nc1nc(Nc3cccc(F)c3C(=O)NCC(C)C)c3cc[nH]c3n1)N(C(=O)CN(C)C)CC2` [Example 157, 2-[(2-{[1-(N,N-dimethylglycyl)-5-(methyloxy)-2,3-dihydro-1H-indol-6-yl]amino}-1H-pyrrolo[2,3-d]pyrimidin-4-yl)amino]-6-fluoro-N-(2-methylpropyl)benzamide], the IC50 is 1.26 to 3.98 nM on human IGF1R (hIGF1R), more than 1000 nM in the test on Colo205, 250 to 1000 nM in the test on NCI-H929 and 100 to 500 nM in test [1].
For the molecule `COc1cc(N2CCN(C(C)C)CC2)ccc1Nc1nc(Nc2cccc3c2C(=O)NC3)c2cc[nH]c2n1` [Example 199, 7-[(2-{[4-[4-(1-methylethyl)-1-piperazinyl]-2-(methyloxy)phenyl]amino}-1H-pyrrolo[2,3-d]pyrimidin-4-yl)amino]-2,3-dihydro-1H-isoindol-1-one], the IC50 at human IGF1R (hIGF1R) is 1.26 to 3.98 nM; in the test with Colo205, less than 250 nM; in the test on NCI-H929 it was less than 250 nM; in test [1], less than 100 nM.
As to `COc1cc2c(cc1Nc1nc(Nc3cccc(F)c3C(N)=O)c3cc[nH]c3n1)CCN2C(=O)CN(C)C` [Example 197, 2-[(2-{[1-(N,N-dimethylglycyl)-6-(methyloxy)-2,3-dihydro-1H-indol-5-yl]amino}-1H-pyrrolo[2,3-d]pyrimidin-4-yl)amino]-6-fluorobenzamide], the IC50 on human IGF1R (hIGF1R) is 1.26 to 3.98 nM; in the test with Colo205 it was less than 250 nM; with NCI-H929, less than 250 nM; in test [1], 100 to 500 nM.
With `COc1cc2c(cc1Nc1nc(Nc3cccc(F)c3C(N)=O)c3cc[nH]c3n1)N(C(=O)CN1CCCC1)CC2` [Example 138, 2-fluoro-6-[(2-{[5-(methyloxy)-1-(1-pyrrolidinylacetyl)-2,3-dihydro-1H-indol-6-yl]amino}-1H-pyrrolo[2,3-d]pyrimidin-4-yl)amino]benzamide], the IC50 on human IGF1R (hIGF1R) was 1.26 to 3.98 nM; in the test with Colo205, 250 to 1000 nM; with NCI-H929, less than 250 nM; in test [1] it was less than 100 nM.
